Test results as given in article PMC11859928, “Design, Synthesis, and Antiproliferative Activity of Novel Indole/1,2,4-Triazole Hybrids as Tubulin Polymerization Inhibitors” (Pharmaceuticals, 2025).

Tests used:
Test in all cases: NCI one-dose assay
Format in all cases: cell-based
PC-3 = conditions: Homo sapiens, PC-3, Prostate cancer, read-out: Cell growth inhibition %
MOLT-4 = conditions: Homo sapiens, MOLT-4, Leukemia, read-out: Cell growth inhibition %
NCI-H23 = conditions: Homo sapiens, NCI-H23, Non-small cell lung cancer, read-out: Cell growth inhibition %
NCI-H226 = conditions: Homo sapiens, NCI-H226, Non-small cell lung cancer, read-out: Cell growth inhibition %
DU-145 = conditions: Homo sapiens, DU-145, Prostate cancer, read-out: Cell growth inhibition %
HCT-116 = conditions: Homo sapiens, HCT-116, Colon cancer, read-out: Cell growth inhibition %
EKVX = conditions: Homo sapiens, Non-small cell lung cancer, read-out: Cell growth inhibition %
CAKI-1 = conditions: Homo sapiens, CAKI-1, Renal cancer, read-out: Cell growth inhibition %
NCI/ADR-RES = conditions: Homo sapiens, Ovarian cancer, read-out: Cell growth inhibition %
CCRF-CEM = conditions: Homo sapiens, Leukemia, read-out: Cell growth inhibition %
MALME-3M = conditions: Homo sapiens, Melanoma, read-out: Cell growth inhibition %
UACC-62 = conditions: Homo sapiens, UACC-62, Melanoma, read-out: Cell growth inhibition %
HL-60(TB) = conditions: Homo sapiens, Leukemia, read-out: Cell growth inhibition %
SF-295 = conditions: Homo sapiens, SF-295, CNS cancer, read-out: Cell growth inhibition %
NCI-H522 = conditions: Homo sapiens, NCI-H522, Non-small cell lung cancer, read-out: Cell growth inhibition %
UACC-257 = conditions: Homo sapiens, UACC-257, Melanoma, read-out: Cell growth inhibition %
SF-539 = conditions: Homo sapiens, SF-539, CNS cancer, read-out: Cell growth inhibition %
SK-OV-3 = conditions: Homo sapiens, SK-OV-3, Ovarian cancer, read-out: Cell growth inhibition %
HCT-15 = conditions: Homo sapiens, HCT-15, Colon cancer, read-out: Cell growth inhibition %
OVCAR-5 = conditions: Homo sapiens, OVCAR-5, Ovarian cancer, read-out: Cell growth inhibition %
BT-549 = conditions: Homo sapiens, BT-549, Breast cancer, read-out: Cell growth inhibition %
K-562 = conditions: Homo sapiens, K562, K-562, Leukemia, read-out: Cell growth inhibition %
OVCAR-3 = conditions: Homo sapiens, OVCAR-3, Ovarian cancer, read-out: Cell growth inhibition %
KM12 = conditions: Homo sapiens, KM12, Colon cancer, read-out: Cell growth inhibition %
A549/ATCC = conditions: Homo sapiens, Non-small cell lung cancer, read-out: Cell growth inhibition %
HS 578 T = conditions: Homo sapiens, Breast cancer, read-out: Cell growth inhibition %
IGROV1 = conditions: Homo sapiens, IGROV-1, IGROV1, Ovarian cancer, read-out: Cell growth inhibition %
SK-MEL-28 = conditions: Homo sapiens, SK-MEL-28, Melanoma, read-out: Cell growth inhibition %
COLO 205 = conditions: Homo sapiens, COLO 205, Colon cancer, read-out: Cell growth inhibition %
HCC-2998 = conditions: Homo sapiens, HCC-2998, Colon cancer, read-out: Cell growth inhibition %
SR = conditions: Homo sapiens, Leukemia, read-out: Cell growth inhibition %
U251 = conditions: Homo sapiens, U-251, U251, CNS cancer, read-out: Cell growth inhibition %
SN12C = conditions: Homo sapiens, Renal cancer, read-out: Cell growth inhibition %
RPMI-8226 = conditions: Homo sapiens, RPMI-8226, Leukemia, read-out: Cell growth inhibition %
MDA-MB-231/ATCC = conditions: Homo sapiens, Breast cancer, read-out: Cell growth inhibition %
NCI-H460 = conditions: Homo sapiens, NCI-H460, Non-small cell lung cancer, read-out: Cell growth inhibition %
ACHN = conditions: Homo sapiens, Renal cancer, read-out: Cell growth inhibition %

Structure (SMILES): O/N=C(\CSc1nnc(-c2c[nH]c3ccccc23)n1-c1ccccc1)c1ccccc1 [Compound 7f, (Z)-2-((5-(1H-Indol-3-yl)-4-phenyl-4H-1,2,4-triazol-3-yl)thio)-1-phenylethanone Oxime]
- inhibition at 10 µM (PC-3): 75.9%
- inhibition at 10 µM (MOLT-4): 76.1%
- inhibition at 10 µM (NCI-H23): 45.8%
- inhibition at 10 µM (NCI-H226): 56.7%
- inhibition at 10 µM (DU-145): 40.2%
- inhibition at 10 µM (HCT-116): 60%
- inhibition at 10 µM (EKVX): 73.6%
- inhibition at 10 µM (CAKI-1): 48.9%
- inhibition at 10 µM (NCI/ADR-RES): 44.7%
- inhibition at 10 µM (CCRF-CEM): 59%
- inhibition at 10 µM (MALME-3M): 23.9%
- inhibition at 10 µM (UACC-62): 59.2%
- inhibition at 10 µM (HL-60(TB)): 75.3%
- inhibition at 10 µM (SF-295): 60.8%
- inhibition at 10 µM (NCI-H522): 46.2%
- inhibition at 10 µM (UACC-257): 20.1%
- inhibition at 10 µM (SF-539): 22.9%
- inhibition at 10 µM (SK-OV-3): 30.6%
- inhibition at 10 µM (HCT-15): 74.8%
- inhibition at 10 µM (OVCAR-5): 14.3%
- inhibition at 10 µM (BT-549): 42.5%
- inhibition at 10 µM (K-562): 67.6%
- inhibition at 10 µM (OVCAR-3): 45%
- inhibition at 10 µM (KM12): 59.9%
- inhibition at 10 µM (A549/ATCC): 46.9%
- inhibition at 10 µM (HS 578 T): 33.3%
- inhibition at 10 µM (IGROV1): 41.8%
- inhibition at 10 µM (SK-MEL-28): 45.5%
- inhibition at 10 µM (COLO 205): 47.1%
- inhibition at 10 µM (HCC-2998): 43.3%
- inhibition at 10 µM (SR): 43.8%
- inhibition at 10 µM (U251): 46.2%
- inhibition at 10 µM (SN12C): 42.6%
- inhibition at 10 µM (RPMI-8226): 68.1%
- inhibition at 10 µM (MDA-MB-231/ATCC): 31.3%
- inhibition at 10 µM (NCI-H460): 66%
- inhibition at 10 µM (ACHN): 58.4%

Structure (SMILES): COc1ccc(/C(CSc2nnc(-c3c[nH]c4ccccc34)n2-c2ccccc2)=N/O)cc1 [Compound 7g, (Z)-2-((5-(1H-Indol-3-yl)-4-phenyl-4H-1,2,4-triazol-3-yl)thio)-1-(4-methoxyphenyl) Ethanone Oxime]
- inhibition at 10 µM (PC-3): 76.9%
- inhibition at 10 µM (MOLT-4): 83.3%
- inhibition at 10 µM (NCI-H23): 58.4%
- inhibition at 10 µM (NCI-H226): 81.8%
- inhibition at 10 µM (DU-145): 57%
- inhibition at 10 µM (HCT-116): 71.9%
- inhibition at 10 µM (EKVX): 84.9%
- inhibition at 10 µM (CAKI-1): 79.9%
- inhibition at 10 µM (NCI/ADR-RES): 61.8%
- inhibition at 10 µM (CCRF-CEM): 83.5%
- inhibition at 10 µM (MALME-3M): 26.9%
- inhibition at 10 µM (UACC-62): 68.6%
- inhibition at 10 µM (HL-60(TB)): 96.1%
- inhibition at 10 µM (SF-295): 79%
- inhibition at 10 µM (NCI-H522): 63.5%
- inhibition at 10 µM (UACC-257): 49.9%
- inhibition at 10 µM (SF-539): 42.7%
- inhibition at 10 µM (SK-OV-3): 47.9%
- inhibition at 10 µM (HCT-15): 84.7%
- inhibition at 10 µM (OVCAR-5): 45%
- inhibition at 10 µM (BT-549): 83.5%
- inhibition at 10 µM (K-562): 81.2%
- inhibition at 10 µM (OVCAR-3): 69.5%
- inhibition at 10 µM (KM12): 78.8%
- inhibition at 10 µM (A549/ATCC): 65.8%
- inhibition at 10 µM (HS 578 T): 61.2%
- inhibition at 10 µM (IGROV1): 56.9%
- inhibition at 10 µM (SK-MEL-28): 62.6%
- inhibition at 10 µM (COLO 205): 63.7%
- inhibition at 10 µM (HCC-2998): 57.6%
- inhibition at 10 µM (SR): 89.1%
- inhibition at 10 µM (U251): 60.6%
- inhibition at 10 µM (SN12C): 54.2%
- inhibition at 10 µM (RPMI-8226): 90.2%
- inhibition at 10 µM (MDA-MB-231/ATCC): 39.3%
- inhibition at 10 µM (NCI-H460): 82.8%
- inhibition at 10 µM (ACHN): 77.7%

Structure (SMILES): Cc1ccc(/C(CSc2nnc(-c3c[nH]c4ccccc34)n2-c2ccccc2)=N/O)cc1 [Compound 7h, (Z)-2-((5-(1H-Indol-3-yl)-4-phenyl-4H-1,2,4-triazol-3-yl)thio)-1-(p-tolyl)ethanone Oxime]
- inhibition at 10 µM (PC-3): 147%
- inhibition at 10 µM (MOLT-4): 128%
- inhibition at 10 µM (NCI-H23): 46.7%
- inhibition at 10 µM (NCI-H226): 141%
- inhibition at 10 µM (DU-145): 160%
- inhibition at 10 µM (HCT-116): 97.4%
- inhibition at 10 µM (EKVX): 71.8%
- inhibition at 10 µM (CAKI-1): 127%
- inhibition at 10 µM (NCI/ADR-RES): 168%
- inhibition at 10 µM (CCRF-CEM): 135%
- inhibition at 10 µM (MALME-3M): 83.3%
- inhibition at 10 µM (UACC-62): 153%
- inhibition at 10 µM (HL-60(TB)): 114%
- inhibition at 10 µM (SF-295): 150%
- inhibition at 10 µM (NCI-H522): 76.2%
- inhibition at 10 µM (UACC-257): 64.3%
- inhibition at 10 µM (SF-539): 89.9%
- inhibition at 10 µM (SK-OV-3): 88.5%
- inhibition at 10 µM (HCT-15): 162%
- inhibition at 10 µM (OVCAR-5): 149%
- inhibition at 10 µM (BT-549): 176%
- inhibition at 10 µM (K-562): 98.4%
- inhibition at 10 µM (OVCAR-3): 85.3%
- inhibition at 10 µM (KM12): 49.8%
- inhibition at 10 µM (A549/ATCC): 81.6%
- inhibition at 10 µM (HS 578 T): 154%
- inhibition at 10 µM (IGROV1): 162%
- inhibition at 10 µM (SK-MEL-28): 37.5%
- inhibition at 10 µM (COLO 205): 87.6%
- inhibition at 10 µM (HCC-2998): 142%
- inhibition at 10 µM (SR): 90.2%
- inhibition at 10 µM (U251): 89.6%
- inhibition at 10 µM (SN12C): 137%
- inhibition at 10 µM (RPMI-8226): 119%
- inhibition at 10 µM (MDA-MB-231/ATCC): 182%
- inhibition at 10 µM (NCI-H460): 98%
- inhibition at 10 µM (ACHN): 162%
